How the values were obtained:
HSV = conditions: cited from earlier work
HSV-1 = test: Fractionation and in situ localization of virus DNA; type: cell-based, HSV-1 Glasgow strain 17; conditions: 100 μg/ml cycloheximide, 1 hpi

Molecule: Cc1ccc(C(=O)Nc2ccc(S(=O)(=O)O)c3cc(S(=O)(=O)O)cc(S(=O)(=O)O)c23)cc1NC(=O)c1cccc(NC(=O)Nc2cccc(C(=O)Nc3cc(C(=O)Nc4ccc(S(=O)(=O)O)c5cc(S(=O)(=O)O)cc(S(=O)(=O)O)c45)ccc3C)c2)c1 [Sumarin]
- HSV attachment / virus binding (HSV): able to block HSV attachment
- cell-to-cell spread of HSV (HSV): able to inhibit cell-to-cell spread

Molecule: Heparin
- HSV attachment / virus binding (HSV): can block attachment

Molecule: CCCCCCCCCCCCCCCCCCCCCCO [n-docosanol]
- HSV attachment / virus binding (HSV): does not inhibit virus binding
- step inhibited instead of binding (HSV): fusion of the virus envelope with the cell's plasma membrane

Molecule: C[C@@H]1C[C@@H]([C@H](O)CC2CC(=O)NC(=O)C2)C(=O)[C@@H](C)C1 [cycloheximide, reference compound]
- virus DNA associated with the nuclear fraction versus no drug control (HSV-1): no effect on the amount of virus DNA associated with the nuclear fraction

From US6756368B1, “Use of cobalt chelates for treating or preventing virus infection” (The Trustees of Columbia University in the City of New York, priority 1999, dated 2004)
